In patent US9334523B2, “Substrates and methods for staining live stem cells” (LIFE TECHNOLOGIES CORPORATION, priority 2011, dated 2016):
“Also recorded” adds a separate entry of the source. Like-named read-outs stand apart in the source and are kept apart here.

What was measured:
[1] = system: H9 ESCs; test: Live staining of H9 ESCs cultured on MEF feeders with alkaline phosphatase substrates; type: cell-based, human; conditions: for concentration range of fluorescence: FIG. 1; for concentration at which robust staining of ESC colonies was achieved: FIG. 2
Description: (§1) Here, two test alkaline phosphate substrates, Fluorescein diphosphate-AM ester (FDP-AM) and DDAOP-AM ester were tested for live staining on pluripotent stem cells like H9 ESCs cultured on MEF (mouse embryonic fibroblast) feeder cells. H9 ESCs and other stem cells expressed high alkaline phosphatase. Negative control cells were MEFs and human dermal fibroblasts which express far lower levels of alkaline phosphatase.
(§2) A 10 mM substrate master stock solution (1000×) of fluorescein diphosphate-AM ester (FDP-AM) or DDAOP-AM was prepared (for FDP-AM for e.g., by adding 512.5 μL of tissue culture grade DMSO to 4 mg of the compound (MW: 780.52)).
(§3) Then, 100 μL of 10 mM FDP-AM or DDAOP-AM solution was diluted into 900 μL of DMEM to make 1 mM working stock; or 10 μM working stock was prepared by diluting 10 μl to 10 ml with 100 mM Tris-HCl pH 8.2 or DMEM basal media; or 1 μM working stock was prepared by diluting 10 μL of 1 mM working stock in 10 ml of DMEM, which was used.
(§4) The AP (alkaline phosphatase) live compound with concentrations ranging: >1 μM, 5 μM, 10 μM, 50 μM, 100 μM, and 200 μM, was made by adding 1, 5, 10, 50, 100 and 200 μL of 1 mM FDP-AM or DDAOP-AM working stock. Similarly, the AP live compounds with concentrations ranging: >20 nM, 50 nM, 100 nM, 250 nM, 500 nM, and 800 nM, was made by adding 2, 5, […], 25, 50 and 80 μL of 1 μM FDP-AM working stock. The first dilution was added to an empty plate (no seeded cells) containing DMEM. The final concentration of the substrates, on the cells, were as follows: 50-200 nM for FDP-AM, and 50-200 μM for DDAOP-AM.
(§5) Incubation times were then determined, beginning with 90 seconds. Where no FITC expression was detected, expression was continued for up to 30 minutes. Levamisole was added to the wash buffer to quench the reaction. This step is whoever optional and not necessary. The samples were rinsed with DMEM and visualized.

[2] = system: MEF (mouse embryonic fibroblast) feeder cells; test: Background staining in negative control cells (MEFs, fibroblasts); type: cell-based
Description: as §1, §2, §3, §4, §5

[3] = system: mouse ESCs; test: Live staining of mouse ESCs on MEF feeders; type: cell-based; conditions: 200 nM, 30 min
From the text: Alkaline phosphatase is not specific just for human ESCs but also for murine ESCs. […] The fluorescent signal is robust and visible at lower 5× magnification [FIG. 7].

[4] = system: differentiating osteoblasts versus AdSCs; test: Staining of adipose derived mesenchymal stem cells and derived osteoblasts; type: cell-based; conditions: FIG. 8
From the text: Alkaline phosphatase is also expressed at high levels in differentiating osteoblasts and mature osteocytes.

SMILES	staining of ESC colonies [1]	time for substrate to diffuse out of the ESC [1]	viability of cells after the substrate diffuses out [1]	proliferation of stained cells after removal of the substrate ([1]; 100-200 nM, 30 minutes)	concentration range of fluorescence [1]	concentration at which robust staining of ESC colonies was achieved [1]	cell-specific marker expression of stained cells ([1]; after staining and removal of the substrate)	re-staining with a second exposure the following day ([1]; after washing, culturing overnight, 30 min exposure)	removal of fluorescent stain from stained cells ([1]; media with substrate replaced with fresh ESC culture media)	background staining in negative control MEFs [2]	background in MEF feeder cells of mESC culture [3]	staining of mESC colonies [3]	specificity of staining of osteoblasts versus parent AdSC/MSC [4]	morphology of stained ESCs [1]	background staining in negative control MEFs ([2]; listed as DDAO-AM)	effect on viability or morphology of stained cells [1]
CC(=O)OCOP(=O)(OCOC(C)=O)Oc1ccc2c(c1)Oc1cc(OP(=O)(OCOC(C)=O)OCOC(C)=O)ccc1C21OC(=O)c2ccccc21 [FDP-AM, Fluorescein diphosphate-AM ester]	successful staining; also recorded: robust staining	within two hours	viable overnight	continue to proliferate even after removal of the substrate	nanomolecular range	0.2 µM	retain their cell-specific marker expression; also recorded: retained their marker expression	successfully re-stained	completely removed	minimal background	minimal background staining; also recorded: little or no background	specially stains mESC; also recorded: robust staining	specific staining of differentiating osteoblasts with minimal background in its parental undifferentiated MSC; also recorded: specific staining for the differentiated phenotype (osteoblast) but not in AdSCs			
CC(=O)OCOP(=O)(OCOC(C)=O)Oc1ccc2c(c1)C(C)(C)C1=C(Cl)C(=O)C(Cl)=CC1=N2 [DDAOP-AM, DDAO phosphate-AM ester]					micomolar range	200 µM				high background expression			failed to show specific staining; also recorded: does not show specific staining	altered morphology	higher background in negative control cells	
O=C1OC2(c3ccc(O)cc3Oc3cc(O)ccc32)c2ccccc21 [fluorescein]																does not affect the viability or morphology
